Experimental data published in ChEMBL document CHEMBL3885861, “Open TG-GATES”.

Species on record: Rattus norvegicus
Assay: Open TG-GATES - Regimen: Single
Type: toxicity, organism-based, Sprague-Dawley
Set-up: regimen Single, gender Male, age 6 weeks
Conditions: in vivo, po, 0 mg/kg, route gavage, dose level Control; for APTT / Bas / Eos / Fbg / Hb / Ht / Lym / MCH / MCHC / MCV / Mono / Neu / PT / Plat / RBC / Ret / WBC: tissue Blood; for KIDNEY_L / KIDNEY_R / KIDNEY_TOTAL: tissue Kidney; for LIVER: tissue Liver; for A/G / ALP / ALT / AST / BUN / CRE / Ca / Cl / DBIL / GLC / IP / K / LDH / Na / PL / RALB / TBIL / TC / TG / TP / gamma-GTP: tissue Plasma

CNC(=C[N+](=O)[O-])NCCSCc1ccc(CN(C)C)o1 [RANITIDINE]
TERMINAL_BW (3 h): 216.9 g
APTT (3 h): 20.3 s
Bas (3 h): 0%
Eos (3 h): 0.4%
Fbg (3 h): 215 mg/dL
Hb (3 h): 13.7 g/dL
Ht (3 h): 39.6%
Lym (3 h): 83.4%
MCH (3 h): 21.8 pg
MCHC (3 h): 34.7%
MCV (3 h): 62.8 fL
Mono (3 h): 2.6%
Neu (3 h): 10.2%
PT (3 h): 12.4 s
Plat (3 h): 114.3 x10_4/uL
RBC (3 h): 632.2 x10_4/ul
Ret (3 h): 6.8%
WBC (3 h): 87.5 x10_2/uL
KIDNEY_L (3 h): 1 g
KIDNEY_R (3 h): 1 g
KIDNEY_TOTAL (3 h): 1.9 g
LIVER (3 h): 9.7 g
A/G (3 h): 1.6
ALP (3 h): 1059 IU/L
ALT (3 h): 36.4 IU/L
AST (3 h): 70.2 IU/L
BUN (3 h): 10.8 mg/dL
CRE (3 h): 0.4 mg/dL
Ca (3 h): 10.8 mg/dL
Cl (3 h): 103 meq/L
DBIL (3 h): 0.068 mg/dL
GLC (3 h): 188.2 mg/dL
IP (3 h): 8.4 mg/dL
K (3 h): 3.8 meq/L
LDH (3 h): 130.4 IU/L
Na (3 h): 140.8 meq/L
PL (3 h): 136.8 mg/dL
RALB (3 h): 3.3 g/dL
TBIL (3 h): 0.1 mg/dL
TC (3 h): 75.2 mg/dL
TG (3 h): 50.8 mg/dL
TP (3 h): 5.3 g/dL
gamma-GTP (3 h): 1 IU/L
TERMINAL_BW (6 h): 213.6 g
APTT (6 h): 19.4 s
Bas (6 h): 0%
Eos (6 h): 1%
Fbg (6 h): 238.2 mg/dL
Hb (6 h): 13.6 g/dL
Ht (6 h): 38.7%
Lym (6 h): 79%
MCH (6 h): 22.3 pg
MCHC (6 h): 35%
MCV (6 h): 63.7 fL
Mono (6 h): 2.6%
Neu (6 h): 15.8%
PT (6 h): 12.2 s
Plat (6 h): 123.3 x10_4/uL
RBC (6 h): 608.8 x10_4/ul
Ret (6 h): 7.6%
WBC (6 h): 97.4 x10_2/uL
KIDNEY_L (6 h): 0.9 g
KIDNEY_R (6 h): 0.9 g
KIDNEY_TOTAL (6 h): 1.9 g
LIVER (6 h): 9.5 g
A/G (6 h): 1.7
ALP (6 h): 839.8 IU/L
ALT (6 h): 35.2 IU/L
AST (6 h): 64.6 IU/L
BUN (6 h): 10.2 mg/dL
CRE (6 h): 0.4 mg/dL
Ca (6 h): 10.7 mg/dL
Cl (6 h): 102.8 meq/L
DBIL (6 h): 0.066 mg/dL
GLC (6 h): 195.2 mg/dL
IP (6 h): 8.6 mg/dL
K (6 h): 3.9 meq/L
LDH (6 h): 111 IU/L
Na (6 h): 140.2 meq/L
PL (6 h): 146 mg/dL
RALB (6 h): 3.4 g/dL
TBIL (6 h): 0.1 mg/dL
TC (6 h): 84.2 mg/dL
TG (6 h): 55.4 mg/dL
TP (6 h): 5.4 g/dL
gamma-GTP (6 h): 1 IU/L
TERMINAL_BW (9 h): 211.2 g
APTT (9 h): 20.2 s
Bas (9 h): 0%
Eos (9 h): 1%
Fbg (9 h): 230 mg/dL
Hb (9 h): 13.6 g/dL
Ht (9 h): 39.1%
Lym (9 h): 81%
MCH (9 h): 21.7 pg
MCHC (9 h): 34.8%
MCV (9 h): 62.4 fL
Mono (9 h): 2%
Neu (9 h): 14.2%
PT (9 h): 12.3 s
Plat (9 h): 120.9 x10_4/uL
RBC (9 h): 627.6 x10_4/ul
Ret (9 h): 7%
WBC (9 h): 71.4 x10_2/uL
KIDNEY_L (9 h): 1 g
KIDNEY_R (9 h): 1 g
KIDNEY_TOTAL (9 h): 1.9 g
LIVER (9 h): 8.8 g
A/G (9 h): 1.6
ALP (9 h): 783.8 IU/L
ALT (9 h): 29.8 IU/L
AST (9 h): 62.8 IU/L
BUN (9 h): 10 mg/dL
CRE (9 h): 0.4 mg/dL
Ca (9 h): 10.5 mg/dL
Cl (9 h): 103.2 meq/L
DBIL (9 h): 0.066 mg/dL
GLC (9 h): 210.8 mg/dL
IP (9 h): 8.5 mg/dL
K (9 h): 3.9 meq/L
LDH (9 h): 122.8 IU/L
Na (9 h): 141.2 meq/L
PL (9 h): 134 mg/dL
RALB (9 h): 3.4 g/dL
TBIL (9 h): 0.1 mg/dL
TC (9 h): 76.8 mg/dL
TG (9 h): 28.8 mg/dL
TP (9 h): 5.5 g/dL
gamma-GTP (9 h): 1.2 IU/L
TERMINAL_BW (24 h): 228.8 g
APTT (24 h): 21.3 s
Bas (24 h): 0.2%
Eos (24 h): 1%
Fbg (24 h): 227.4 mg/dL
Hb (24 h): 13.7 g/dL
Ht (24 h): 39.1%
Lym (24 h): 83.6%
MCH (24 h): 22.5 pg
MCHC (24 h): 35.2%
MCV (24 h): 63.9 fL
Mono (24 h): 2.2%
Neu (24 h): 11.8%
PT (24 h): 11.9 s
Plat (24 h): 130.4 x10_4/uL
RBC (24 h): 611.2 x10_4/ul
Ret (24 h): 6.6%
WBC (24 h): 112 x10_2/uL
KIDNEY_L (24 h): 1 g
KIDNEY_R (24 h): 1 g
KIDNEY_TOTAL (24 h): 2.1 g
LIVER (24 h): 10.9 g
A/G (24 h): 1.6
ALP (24 h): 872.4 IU/L
ALT (24 h): 38.8 IU/L
AST (24 h): 62.6 IU/L
BUN (24 h): 16 mg/dL
CRE (24 h): 0.4 mg/dL
Ca (24 h): 10.8 mg/dL
Cl (24 h): 102.4 meq/L
DBIL (24 h): 0.094 mg/dL
GLC (24 h): 190.2 mg/dL
IP (24 h): 7.7 mg/dL
K (24 h): 4.1 meq/L
LDH (24 h): 121 IU/L
Na (24 h): 140.6 meq/L
PL (24 h): 148.8 mg/dL
RALB (24 h): 3.5 g/dL
TBIL (24 h): 0.1 mg/dL
TC (24 h): 77.2 mg/dL
TG (24 h): 78.6 mg/dL
TP (24 h): 5.7 g/dL
gamma-GTP (24 h): 1 IU/L
